# Results taken from patent US12473264B2, “Inhibitors of erythrocyte band 3 tyrosine phosphorylation and uses thereof” (Purdue Research Foundation, priority 2019, dated 2025).
# Where two headings read alike, the source gives them in different places.
# How the values were obtained:
# [1] = target: T1, ZAP70 (Homo sapiens, UniProt P43403); assay: ADP-Glo kinase assay, ZAP70; assay type: biochemical; conditions: FIG. 6B
# T1 sequence (P43403 1-619): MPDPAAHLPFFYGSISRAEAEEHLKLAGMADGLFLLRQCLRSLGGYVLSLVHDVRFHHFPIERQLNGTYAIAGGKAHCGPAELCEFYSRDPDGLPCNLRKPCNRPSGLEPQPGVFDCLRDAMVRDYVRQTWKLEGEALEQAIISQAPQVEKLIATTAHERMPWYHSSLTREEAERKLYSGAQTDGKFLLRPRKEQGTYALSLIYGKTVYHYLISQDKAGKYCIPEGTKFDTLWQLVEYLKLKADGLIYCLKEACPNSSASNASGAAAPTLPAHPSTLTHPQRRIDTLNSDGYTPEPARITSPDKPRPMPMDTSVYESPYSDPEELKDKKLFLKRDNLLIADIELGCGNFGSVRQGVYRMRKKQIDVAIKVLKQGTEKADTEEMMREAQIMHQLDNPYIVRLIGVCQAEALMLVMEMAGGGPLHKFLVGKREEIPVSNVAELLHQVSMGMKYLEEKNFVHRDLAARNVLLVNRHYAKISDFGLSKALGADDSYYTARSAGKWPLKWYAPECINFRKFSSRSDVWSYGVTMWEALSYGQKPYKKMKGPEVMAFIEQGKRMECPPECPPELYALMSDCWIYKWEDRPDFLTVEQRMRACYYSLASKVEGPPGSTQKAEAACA
# Method: (§1) Syk kinase inhibition assays were run on 96-well plates using the ADP-Glo assay kit according to manufacturer's specifications. All kinase reactions were run using Kinase Assay Buffer III supplemented with DTT and MnCl2 as required by the kinase of interest to generate kinase reaction buffer. Stock solutions of kinase inhibitor in DMSO were diluted into 2× kinase reaction buffer and the final concentration of DMSO in each kinase reaction was held below 1%. The total volume of each kinase reaction was 25 μL apportioned as: 5 μL 2× kinase reaction buffer or diluted kinase inhibitor, 5 μL 1 mg/mL (stock) kinase substrate, 10 μL kinase in kinase reaction buffer, and 5 μL 250 μM ATP diluted into kinase reaction buffer. Kinase inhibitors were incubated with kinase and substrate prior to addition of ATP for 20 min at room temperature (RT). After addition of ATP to the wells, the plate was incubated at 37° C. for 30-60 minutes depending on the kinase used. After incubation the plate was cooled to RT for 5 minutes prior to addition of 25 μL ADP-Glo reagent and incubation on a shaker for 40 minutes. […] After 30 min, the luminescence was recorded using a Neo2 plate reader and 1 sec integration of the signal. The background signal was subtracted from all readings and the signal was normalized to the maximum signal obtained in the absence of inhibitor. […]
# [2] = target: Syk (Homo sapiens, UniProt P43405); assay: ADP-Glo kinase inhibition assay, Syk; assay type: biochemical
# Method: Syk kinase inhibition assays were run on 96-well plates using the ADP-Glo assay kit according to manufacturer's specifications. All kinase reactions were run using Kinase Assay Buffer III supplemented with DTT and MnCl2 as required by the kinase of interest to generate kinase reaction buffer. Stock solutions of kinase inhibitor in DMSO were diluted into 2× kinase reaction buffer and the final concentration of DMSO in each kinase reaction was held below 1%. […] Kinase inhibitors were incubated with kinase and substrate prior to addition of ATP for 20 min at room temperature (RT). After addition of ATP to the wells, the plate was incubated at 37° C. for 30-60 minutes depending on the kinase used. After incubation the plate was cooled to RT for 5 minutes prior to addition of 25 μL ADP-Glo reagent and incubation on a shaker for 40 minutes. After 40 minutes, 50 μL Kinase Detection reagent were added and the plate was protected from light while incubated on a shaker. After 30 min, the luminescence was recorded using a Neo2 plate reader and 1 sec integration of the signal. The background signal was subtracted from all readings and the signal was normalized to the maximum signal obtained in the absence of inhibitor. Data were plotted and inhibition curves fit using Graphpad software.
# [3] = target: Lyn A (Homo sapiens, UniProt P07948); assay: ADP-Glo kinase assay, Lyn A; assay type: biochemical; conditions: FIG. 6B
# Sequence of Lyn A (P07948 whole entry): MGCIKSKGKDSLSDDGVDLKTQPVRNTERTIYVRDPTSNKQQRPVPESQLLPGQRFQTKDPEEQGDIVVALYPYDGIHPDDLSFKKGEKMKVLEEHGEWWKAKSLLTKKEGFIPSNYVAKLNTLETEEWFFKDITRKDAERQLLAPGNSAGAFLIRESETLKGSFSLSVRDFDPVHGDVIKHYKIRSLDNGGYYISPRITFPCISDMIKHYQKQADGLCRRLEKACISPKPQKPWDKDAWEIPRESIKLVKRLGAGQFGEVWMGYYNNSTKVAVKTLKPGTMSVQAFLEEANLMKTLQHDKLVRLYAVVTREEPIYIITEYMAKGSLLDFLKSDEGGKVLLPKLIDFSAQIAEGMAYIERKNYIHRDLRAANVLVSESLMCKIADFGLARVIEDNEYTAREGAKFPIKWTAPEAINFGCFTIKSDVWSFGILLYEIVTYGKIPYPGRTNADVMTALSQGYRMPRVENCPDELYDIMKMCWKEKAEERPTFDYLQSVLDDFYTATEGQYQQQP
# Method: as §1
# [4] = target: SRC (Homo sapiens, UniProt P12931); assay: ADP-Glo kinase assay, SRC; assay type: biochemical; conditions: FIG. 6B
# Sequence of SRC (P12931 whole entry): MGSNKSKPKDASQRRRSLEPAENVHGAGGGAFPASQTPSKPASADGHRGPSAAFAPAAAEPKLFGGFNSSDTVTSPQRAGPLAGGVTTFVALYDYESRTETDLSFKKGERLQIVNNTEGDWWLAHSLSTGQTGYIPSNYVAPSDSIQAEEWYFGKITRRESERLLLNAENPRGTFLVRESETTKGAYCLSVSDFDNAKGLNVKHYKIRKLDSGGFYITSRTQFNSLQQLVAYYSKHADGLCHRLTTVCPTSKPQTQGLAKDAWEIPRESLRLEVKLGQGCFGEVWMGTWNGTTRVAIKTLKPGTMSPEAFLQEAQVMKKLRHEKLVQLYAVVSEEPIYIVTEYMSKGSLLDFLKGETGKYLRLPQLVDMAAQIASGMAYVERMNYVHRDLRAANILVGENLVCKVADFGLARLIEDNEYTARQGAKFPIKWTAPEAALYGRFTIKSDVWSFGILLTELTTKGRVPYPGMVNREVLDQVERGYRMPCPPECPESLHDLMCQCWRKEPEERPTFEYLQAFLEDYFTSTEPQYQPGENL
# Method: as §1
# [5] = target: EGFR (Homo sapiens, UniProt P00533); assay: ADP-Glo kinase assay, EGFR; assay type: biochemical
# Sequence of EGFR (P00533 25-1210): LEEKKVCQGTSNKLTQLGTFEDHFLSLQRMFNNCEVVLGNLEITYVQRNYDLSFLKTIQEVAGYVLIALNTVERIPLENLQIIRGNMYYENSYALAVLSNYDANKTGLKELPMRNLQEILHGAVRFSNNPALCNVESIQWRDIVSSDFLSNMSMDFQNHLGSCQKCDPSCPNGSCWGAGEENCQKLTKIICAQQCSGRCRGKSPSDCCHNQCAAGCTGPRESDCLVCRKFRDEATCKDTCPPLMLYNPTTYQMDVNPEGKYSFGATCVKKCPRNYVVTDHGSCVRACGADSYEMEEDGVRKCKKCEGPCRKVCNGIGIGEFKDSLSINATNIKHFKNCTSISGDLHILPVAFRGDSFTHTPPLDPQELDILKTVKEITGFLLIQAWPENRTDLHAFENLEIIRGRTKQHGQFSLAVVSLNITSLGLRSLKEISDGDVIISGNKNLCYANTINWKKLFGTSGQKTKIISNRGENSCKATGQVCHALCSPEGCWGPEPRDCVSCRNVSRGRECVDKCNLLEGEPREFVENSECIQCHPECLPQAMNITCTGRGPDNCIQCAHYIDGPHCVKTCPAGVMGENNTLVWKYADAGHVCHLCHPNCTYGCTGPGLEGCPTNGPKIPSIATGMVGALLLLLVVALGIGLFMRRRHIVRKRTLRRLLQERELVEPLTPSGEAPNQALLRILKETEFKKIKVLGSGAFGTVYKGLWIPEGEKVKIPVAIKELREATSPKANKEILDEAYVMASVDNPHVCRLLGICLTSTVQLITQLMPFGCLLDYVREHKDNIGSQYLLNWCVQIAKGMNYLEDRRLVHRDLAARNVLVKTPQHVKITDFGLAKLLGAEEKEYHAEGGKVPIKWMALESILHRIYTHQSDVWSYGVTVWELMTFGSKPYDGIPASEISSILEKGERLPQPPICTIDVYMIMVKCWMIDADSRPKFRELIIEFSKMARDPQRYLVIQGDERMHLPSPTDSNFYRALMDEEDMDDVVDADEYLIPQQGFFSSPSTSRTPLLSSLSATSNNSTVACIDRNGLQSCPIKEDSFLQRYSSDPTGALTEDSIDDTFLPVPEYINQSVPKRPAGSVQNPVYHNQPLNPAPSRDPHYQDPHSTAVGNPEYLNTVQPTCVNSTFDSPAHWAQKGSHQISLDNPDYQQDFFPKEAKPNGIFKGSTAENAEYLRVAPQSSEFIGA
# Method: as §1
# [6] = test system: SCD patient RBCs; assay: RBC velocity through microfluidic capillary; assay type: cell-based, human; conditions: concentrations as low as 50 nM, various levels of oxygenation
# Method: Microfluidic capillary devices were fabricated with polydimethylsiloxane (PDMS) using standard soft photolithography techniques. Capillaries were constructed with a straight channel (w=75 μm, h=6.52 μm) containing a constriction (wc=5 μm and h=6.52 μm). To control the oxygen level inside the channel, the microfluidic device was submerged in a customized glass chamber filled with sodium sulfite solution (0M, 0.01M, 0.1M or 1M) (Sigma-Aldrich). The oxygen level was calibrated using 25 μM of tris(2,2′-bipyridyl)dichlororuthenium(II) hexahydrate (an O2 indicator, Sigma-Aldrich) then converted into a PO2 value using the Stern-Volmer equation, I0/I=1+PO2×Kq, where I^0 is the maximum fluorescence intensity and Kq is the quenching constant. The calibration results are obtained.
# Sickle cell blood samples were obtained from five patients (n=5, age 4-9 years old) and RBCs were isolated by centrifugation. […] For quantitation of RBC velocity in a microfluidic capillary, the RBC suspension was injected into the capillary at a constant pressure of 1.6 psi, and the velocity of the RBCs in the constriction was recorded using a high-speed video camera (Phantom Miro M120, 1900 frames per second) mounted on an inverted microscope (Leica DMI 6000B). Data were analyzed using Phantom Camera Control software.
# [7] = test system: SCD patient RBCs; assay: Erythrocyte-derived microparticle release in SCD patient samples; assay type: cell-based, human; conditions: SCD patient samples incubated with 1 μM S701 (untreated SCD 18, healthy seven)
# Method: Plasma from sickle cell samples (see above) was centrifuged 2× at 2500 rcf for 15 minutes to remove platelets and 100 μL of supernatant containing MPs was incubated for 20 minutes on ice with 0.5 μL of BV421 mouse-anti-human 235a antibody (anti-glycophorin A; BD Biosciences #562938). Samples were diluted with 1000 μL of stain buffer (BD Biosciences #554656), transferred to BD Trucount™ tubes (BD Biosciences #340334) and analyzed on an Attune NxT Flow Cytometer by utilizing violet fluorescent trigger channel. The absolute number of RBC-derived microparticles was then calculated using the following formula,
# (§2) For evaluation of the effect of tyrosine kinase inhibitors on release of RBC-derived MPs from sickle cells suspended at 30% Hct in PBS-G, 500 μL washed RBCs were treated for 1 hour with the desired concentration of tyrosine kinase inhibitor or vehicle control, and then shaken at 1400 RPM for 4 h. Newly released microparticles were then separated from residual RBCs by centrifuging at 800 rcf for 10 minutes, collecting the supernatant, and analyzing the supernatant for RBC-derived MPs as described above.
# [8] = test system: SCD patient RBCs; assay: Free plasma hemoglobin in SCD patient samples; assay type: cell-based, human; conditions: 1 μM S701, SCD patient samples
# Method: as §2
# (§3) Cayman's hemoglobin colorimetric assay was used to quantitate the level of cell-free plasma hemoglobin in both patient plasma samples and in the above kinase-treated RBC supernatant samples according to the manufacturer's instruction.
# [9] = test system: Syk phosphorylation of Band 3; assay: Band 3 tyrosine phosphorylation induced in healthy donor RBCs by OV (Western blot); assay type: cell-based; conditions: Homo sapiens; healthy donor RBCs treated with OV; read-out: in vitro IC50 against Syk phosphorylation of Band 3
# Method: (§4) RBC ghosts were then prepared by mixing 150 μL of packed RBCs with 1500 μL of ice-cold ghost buffer (5 mM Na2HPO4, 1 mM EDTA, pH 8.0, containing 1 mM phenylmethylsulfonyl fluoride (PMSF) and 1% phosphatase cocktail inhibitors 2 and 3) and allowed to sit on ice for 30 min. Samples were centrifuged at 13000 rpm for 15 min at 4° C. and supernatants were removed. Ghost pellets were washed an additional 3×, after which 10 μL was removed for determination of protein concentration using Pierce™ Rapid Gold BCA Protein Assay (Thermo Fisher Scientific, A53226). Residual ghosts were solubilized in 4× Laemmli buffer (Bio-Rad) at a concentration of 1 […] and warmed to 30° C. for 30 min prior to storage at −20° C. until use.
# (§5) Band 3 tyrosine phosphorylation was quantitated by loading 30 μL of each thawed sample onto a 10% SDS-PAGE gel and separating at 90, 120 and 150 V for 30, 45 and 20 minutes, respectively. Proteins were then transferred to a nitrocellulose membrane at 100 V for 2 hours, after which membranes were immunostained with anti-phosphotyrosine (1:1000, Cell Signaling, Inc.) or anti-actin (1:20000) antibodies dissolved in TBST (25 mM Tris, 140 mM NaCl, 3 mM KCl, 0.05% v/v Tween-20) containing 5% w/v milk. […] Band 3 tyrosine phosphorylation intensity/densitometry was quantitated using image J software.
# [10] = test system: healthy donor human RBCs; assay: Hemolysis (Hb release) induced by phosphatase inhibitors in healthy donor human RBCs; assay type: cell-based
# Excerpt: as §3
# [11] = test system: phosphorylated Band 3; assay: Band 3 tyrosine phosphorylation in SCD RBC lysates (Western blot); assay type: cell-based, human; conditions: 1 μM S701, SCD RBC lysates, anti-pY Western blot
# Method: as §4, §5
IC50 ([2]; cell-free) [nM],SMILES,inhibitory effect on ZAP 70 [1],Syk inhibition compared to S701 ([2]; FIG. 6B),inhibitory effect on Lyn A [3],inhibitory effect on SRC [4],inhibitory effect on EGFR [5],RBC velocity through a 5 μm tube [6],number of MPs released per μL of plasma [7],decrease of concentration of free plasma hemoglobin [8] [%],IC50 [9] [nM],"percent inhibition of hemolysis at 5 µM ([10]; 5 μM S701, Diamide, read-out: inhibition of hemolysis, Diamide) [%]","percent inhibition of hemolysis at 5 µM ([10]; 5 μM S701, Phenylhydrazine, read-out: inhibition of hemolysis, Phenylhydrazine) [%]","percent inhibition of hemolysis at 5 µM ([10]; 5 μM S701, phosphatase inhibitor OV, read-out: inhibition of hemolysis, OV) [%]",phosphorylated Band 3 [11]
,"COc1ccc(Nc2nc(Nc3cccc4[nH]ccc34)ncc2F)c(-c2ccc(O)c(O)c2)c1 [S602, 2′-((2-((1H-indol-4-yl)amino)-5-fluoropyrimidin-4-yl)amino)-5′-methoxy-[1,1′-biphenyl]-3,4-diol]",very significantly higher concentrations to have an impact,even better IC50 value for inhibiting Syk as compared to S701,very significantly higher concentrations to have an impact,very significantly higher concentrations to have an impact,very significantly higher concentrations to have an impact,,,,,,,,
581,"COc1cc(Nc2ncc(F)c(NC(=O)c3cc(O)c(O)c(O)c3)n2)cc(OC)c1OC [S701, N-(5-fluoro-2-((3,4,5-trimethoxyphenyl)amino)pyrimidin-4-yl)-3,4,5-trihydroxybenzamide]",,,,,has to be in really high concentrations to have any inhibitory effect,increased RBC velocity,five,47,~5000,50,44,25,notable decrease in phosphorylated Band 3
